The values that follow come from US20250034136A1 (Nimbus Wadjet, Inc., priority 2023, published 2025).

Where only a bound is given, the exact number is not on record here.

Experiment [1] concerns the target WRN (BV08), human Werner helicase (Uniprot Q14191, amino acids 517-1235 with L1074F point mutation) (Homo sapiens (Human), UniProt Q14191, L1074F). The experiment in a line: WRN (BV08) ADP-Glo assay. The following applies: class symbols A-E, read-out: ADP-Glo_hWRN_IC50. It counts as biochemical. (ADP-Glo turns the ADP formed in a reaction into a luminescent signal.)

The test system of experiment [2] is p21 induction in HCT116 cells. The experiment in a line: p21 induction in HCT116 cells. It counts as cell-based. The following applies: Homo sapiens, HCT-116, 24 h, HCT116 cells, 24 h compound incubation; read-out: P21_EC50. The method, boiled down: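 HCT116 cells, 2,000/well, treated 24 h at 37 °C with 11-point compound dilutions in duplicate. Fixed, then immunostained for p21 and GAPDH and read by near-IR imaging at 800/700 nm. Normalized to DMSO (low) and reference WRN inhibitor (high) controls; EC50 from non-linear regression.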

Sequence of WRN (BV08), human Werner helicase (Uniprot Q14191, amino acids 517-1235 with L1074F point mutation) (Q14191 other isoform, or with tags, fused parts or gaps L1074F (already in the parent)): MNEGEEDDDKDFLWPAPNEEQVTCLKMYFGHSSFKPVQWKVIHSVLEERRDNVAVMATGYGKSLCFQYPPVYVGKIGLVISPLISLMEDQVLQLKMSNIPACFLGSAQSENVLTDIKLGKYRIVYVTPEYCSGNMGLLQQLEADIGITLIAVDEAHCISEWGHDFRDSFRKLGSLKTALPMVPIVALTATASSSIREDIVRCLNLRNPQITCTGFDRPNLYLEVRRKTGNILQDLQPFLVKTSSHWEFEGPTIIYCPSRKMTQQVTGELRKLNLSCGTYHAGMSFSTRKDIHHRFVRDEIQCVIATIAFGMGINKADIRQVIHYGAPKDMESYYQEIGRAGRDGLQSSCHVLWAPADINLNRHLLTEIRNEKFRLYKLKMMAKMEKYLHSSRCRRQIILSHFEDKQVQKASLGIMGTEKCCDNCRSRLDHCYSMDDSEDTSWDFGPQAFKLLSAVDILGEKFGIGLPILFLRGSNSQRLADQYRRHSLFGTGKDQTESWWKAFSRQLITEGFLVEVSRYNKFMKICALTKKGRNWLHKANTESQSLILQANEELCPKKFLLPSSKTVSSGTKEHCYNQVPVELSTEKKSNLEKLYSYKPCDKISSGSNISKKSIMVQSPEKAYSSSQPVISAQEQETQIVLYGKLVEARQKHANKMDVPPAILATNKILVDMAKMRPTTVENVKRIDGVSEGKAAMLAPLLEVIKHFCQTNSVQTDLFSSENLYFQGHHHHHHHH

Regarding `CCc1c(N2CCN(C(=O)c3c(Oc4cnn(C)c4)ncc(C)c3O)[C@H]3CC[C@@H]32)c(=O)c2nc(N(C)C)cnc2n1CC(=O)Nc1ccc(C(F)(F)F)cc1Cl` [I-273, N-[2-chloro-4-(trifluoromethyl)phenyl]-2-[2-(dimethylamino)-6-ethyl-7-[(1S,6S)-5-{4-hydroxy-5-methyl-2-[(1-methyl-1H-pyrazol-4-yl)oxy]pyridine-3-carbonyl}-2,5-diazabicyclo[4.2.0]octan-2-yl]-8-oxo-5H,8H-pyrido[2,3-b]pyrazin-5-yl]acetamide], the IC50 in experiment [1] lay within 5 to 50 nM. In addition, the EC50 in experiment [2] was below 500 nM.
Taken in the same sequence, the figures for `CCc1c(N2CCN(C(=O)c3c(OC)ncc(OC)c3O)[C@H]3CC[C@@H]32)c(=O)c2nc(N(C)C)cnc2n1CC(=O)Nc1ccc(C(F)(F)F)cc1Cl` [I-274] were 5 to 50 nM and below 500 nM.
Taken in the same sequence, the figures for `CCOc1ncc(C)c(O)c1C(=O)N1CCN(c2c(CC)n(CC(=O)Nc3ccc(C(F)(F)F)cc3Cl)c3ncc(N(C)C)nc3c2=O)[C@H]2CC[C@@H]21` [I-275, N-[2-chloro-4-(trifluoromethyl)phenyl]-2-[2-(dimethylamino)-7-[(1S,6S)-5-(2-ethoxy-4-hydroxy-5-methylpyridine-3-carbonyl)-2,5-diazabicyclo[4.2.0]octan-2-yl]-6-ethyl-8-oxo-5H,8H-pyrido[2,3-b]pyrazin-5-yl]acetamide] were 5 to 50 nM and below 500 nM.
The corresponding values for `CCc1c(N2CCN(C(=O)c3c(OC)ncc(C(F)F)c3O)[C@H]3CC[C@@H]32)c(=O)c2nc(N(C)C)cnc2n1CC(=O)Nc1ccc(C(F)(F)F)cc1Cl` [I-280, N-[2-chloro-4-(trifluoromethyl)phenyl]-2-{7-[(1S,6S)-5-[5-(difluoromethyl)-4-hydroxy-2-methoxypyridine-3-carbonyl]-2,5-diazabicyclo[4.2.0]octan-2-yl]-2-(dimethylamino)-6-ethyl-8-oxo-5H,8H-pyrido[2,3-b]pyrazin-5-yl}acetamide] are 5 to 50 nM and above 5000 nM.
For `CCc1c(N2CCN(C(=O)c3c(OC(F)F)ncc(C)c3O)[C@H]3CC[C@@H]32)c(=O)c2nc(N(C)C)cnc2n1CC(=O)Nc1ccc(C(F)(F)F)cc1Cl` [I-281, N-[2-chloro-4-(trifluoromethyl)phenyl]-2-{7-[(1S,6S)-5-[2-(difluoromethoxy)-4-hydroxy-5-methylpyridine-3-carbonyl]-2,5-diazabicyclo[4.2.0]octan-2-yl]-2-(dimethylamino)-6-ethyl-8-oxo-5H,8H-pyrido[2,3-b]pyrazin-5-yl}acetamide], the IC50 in experiment [1] is 5 to 50 nM. In addition, the EC50 in experiment [2] was below 500 nM.
Taken in the same sequence, the figures for `CCc1c(N2CCN(C(=O)c3c(OCCOC)ncc(C)c3O)[C@H]3CC[C@@H]32)c(=O)c2nc(N(C)C)cnc2n1CC(=O)Nc1ccc(C(F)(F)F)cc1Cl` [I-282, N-[2-chloro-4-(trifluoromethyl)phenyl]-2-[2-(dimethylamino)-6-ethyl-7-[(1S,6S)-5-[4-hydroxy-2-(2-methoxyethoxy)-5-methylpyridine-3-carbonyl]-2,5-diazabicyclo[4.2.0]octan-2-yl]-8-oxo-5H,8H-pyrido[2,3-b]pyrazin-5-yl]acetamide] were 5 to 50 nM and below 500 nM.
Taken in the same sequence, the figures for `CCc1c(N2CCN(C(=O)c3ncnc(C)c3O)[C@H]3CC[C@@H]32)c(=O)c2nc(-c3ccnc(OC)c3)cnc2n1CC(=O)Nc1ccc(C(F)(F)F)cc1Cl` [I-283, N-[2-chloro-4-(trifluoromethyl)phenyl]-2-{6-ethyl-7-[(1S,6S)-5-(5-hydroxy-6-methylpyrimidine-4-carbonyl)-2,5-diazabicyclo[4.2.0]octan-2-yl]-2-(2-methoxypyridin-4-yl)-8-oxo-5H,8H-pyrido[2,3-b]pyrazin-5-yl}acetamide] were at most 5 nM and below 500 nM.
With `CCc1c(N2CCN(C(=O)c3ncnc(C)c3O)[C@H]3CC[C@@H]32)c(=O)c2nc(C3=CCOCC3)cnc2n1CC(=O)Nc1ccc(C(F)(F)F)cc1Cl` [I-284, N-[2-chloro-4-(trifluoromethyl)phenyl]-2-[2-(3,6-dihydro-2H-pyran-4-yl)-6-ethyl-7-[(1S,6S)-5-(5-hydroxy-6-methylpyrimidine-4-carbonyl)-2,5-diazabicyclo[4.2.0]octan-2-yl]-8-oxo-5H,8H-pyrido[2,3-b]pyrazin-5-yl]acetamide], the IC50 in experiment [1] was in the range of 5 to 50 nM. Moreover, in experiment [2], the EC50 is below 500 nM.
Taken in the same sequence, the figures for `CCc1c(N2CCN(C(=O)c3ncnc(C)c3O)[C@H]3CC[C@@H]32)c(=O)c2nc(CN3CCOCC3)cnc2n1CC(=O)Nc1ccc(C(F)(F)F)cc1Cl` [I-285, N-[2-chloro-4-(trifluoromethyl)phenyl]-2-{6-ethyl-7-[(1S,6S)-5-(5-hydroxy-6-methylpyrimidine-4-carbonyl)-2,5-diazabicyclo[4.2.0]octan-2-yl]-2-[(morpholin-4-yl)methyl]-8-oxo-5H,8H-pyrido[2,3-b]pyrazin-5-yl}acetamide] were 5 to 50 nM and 500 to 2000 nM.
Taken in the same sequence, the figures for `CCc1c(N2CCN(C(=O)c3c(OC)ncc(C4CC4)c3O)[C@H]3CC[C@@H]32)c(=O)c2nc(N(C)C)cnc2n1CC(=O)Nc1ccc(C(F)(F)F)cc1Cl` [I-286, N-[2-chloro-4-(trifluoromethyl)phenyl]-2-{7-[(1S,6S)-5-(5-cyclopropyl-4-hydroxy-2-methoxypyridine-3-carbonyl)-2,5-diazabicyclo[4.2.0]octan-2-yl]-2-(dimethylamino)-6-ethyl-8-oxo-5H,8H-pyrido[2,3-b]pyrazin-5-yl} acetamide] were 5 to 50 nM and below 500 nM.
For the compound `CCc1c(N2CCN(C(=O)c3c(OC)ncc(C4CCOC4)c3O)[C@H]3CC[C@@H]32)c(=O)c2nc(N(C)C)cnc2n1CC(=O)Nc1ccc(C(F)(F)F)cc1Cl` (stereo partly drawn) [I-287, N-[2-chloro-4-(trifluoromethyl)phenyl]-2-[2-(dimethylamino)-6-ethyl-7-[(1S,6S)-5-[4-hydroxy-2-methoxy-5-(oxolan-3-yl)pyridine-3-carbonyl]-2,5-diazabicyclo[4.2.0]octan-2-yl]-8-oxo-5H,8H-pyrido[2,3-b]pyrazin-5-yl]acetamide], the IC50 in experiment [1] was in the range of 5 to 50 nM. Moreover, the EC50 in experiment [2] was below 500 nM.
With `CCc1c(N2CCN(C(=O)c3ncnc(C)c3O)[C@H]3CC[C@@H]32)c(=O)c2nc(N(C)C3CCC(O)C3)cnc2n1CC(=O)Nc1ccc(C(F)(F)F)cc1Cl` (stereo partly drawn) [I-288, N-[2-chloro-4-(trifluoromethyl)phenyl]-2-{6-ethyl-7-[(1S,6S)-5-(5-hydroxy-6-methylpyrimidine-4-carbonyl)-2,5-diazabicyclo[4.2.0]octan-2-yl]-2-[(3-hydroxycyclopentyl)(methyl)amino]-8-oxo-5H,8H-pyrido[2,3-b]pyrazin-5-yl}acetamide], the IC50 in experiment [1] was 5 to 50 nM. Besides, in experiment [2], the EC50 was below 500 nM.
The corresponding values for `CCc1c(N2CCN(C(=O)c3ncnc(C)c3O)[C@H]3CC[C@@H]32)c(=O)c2nc(N(C)C)cnc2n1CC(=O)Nc1ccc(OC)cc1Cl` [I-289, N-(2-chloro-4-methoxyphenyl)-2-[2-(dimethylamino)-6-ethyl-7-[(1S,6S)-5-(5-hydroxy-6-methylpyrimidine-4-carbonyl)-2,5-diazabicyclo[4.2.0]octan-2-yl]-8-oxo-5H,8H-pyrido[2,3-b]pyrazin-5-yl]acetamide] are 5 to 50 nM and 500 to 2000 nM.
The corresponding values for `CCc1c(N2CCN(C(=O)c3ncnc(C)c3O)[C@H]3CC[C@@H]32)c(=O)c2nc(N3CCC4(COC4)C3)cnc2n1CC(=O)Nc1ccc(C(F)(F)F)cc1Cl` [I-290, N-[2-chloro-4-(trifluoromethyl)phenyl]-2-{6-ethyl-7-[(1S,6S)-5-(5-hydroxy-6-methylpyrimidine-4-carbonyl)-2,5-diazabicyclo[4.2.0]octan-2-yl]-2-{2-oxa-6-azaspiro[3.4]octan-6-yl}-8-oxo-5H,8H-pyrido[2,3-b]pyrazin-5-yl}acetamide] are 5 to 50 nM and below 500 nM.
Taken in the same sequence, the figures for `CCc1c(N2CCN(C(=O)c3c(OC)ncc(COC)c3O)[C@H]3CC[C@@H]32)c(=O)c2nc(N(C)C)cnc2n1CC(=O)Nc1ccc(C(F)(F)F)cc1Cl` [I-292, N-[2-chloro-4-(trifluoromethyl)phenyl]-2-[2-(dimethylamino)-6-ethyl-7-[(1S,6S)-5-[4-hydroxy-2-methoxy-5-(methoxymethyl)pyridine-3-carbonyl]-2,5-diazabicyclo[4.2.0]octan-2-yl]-8-oxo-5H,8H-pyrido[2,3-b]pyrazin-5-yl]acetamide] were 5 to 50 nM and above 5000 nM.
Regarding `CCc1c(N2CCN(C(=O)c3ncnc(C)c3O)[C@H]3CC[C@@H]32)c(=O)c2nc(N(C)C3CCC3O)cnc2n1CC(=O)Nc1ccc(C(F)(F)F)cc1Cl` (stereo partly drawn) [I-293, N-[2-chloro-4-(trifluoromethyl)phenyl]-2-{6-ethyl-7-[(1S,6S)-5-(5-hydroxy-6-methylpyrimidine-4-carbonyl)-2,5-diazabicyclo[4.2.0]octan-2-yl]-2-[(2-hydroxycyclobutyl)(methyl)amino]-8-oxo-5H,8H-pyrido[2,3-b]pyrazin-5-yl}acetamide], the IC50 in experiment [1] was in the range of 5 to 50 nM. For the same compound, the EC50 in experiment [2] was below 500 nM.
As to `CCc1c(N2CCN(C(=O)c3ncnc(C)c3O)[C@H]3CC[C@@H]32)c(=O)c2nc(N(C)[C@H]3CC[C@H](O)C3)cnc2n1CC(=O)Nc1ccc(C(F)(F)F)cc1Cl` [I-299, N-[2-chloro-4-(trifluoromethyl)phenyl]-2-{6-ethyl-7-[(1S,6S)-5-(5-hydroxy-6-methylpyrimidine-4-carbonyl)-2,5-diazabicyclo[4.2.0]octan-2-yl]-2-{[(1S,3S)-3-hydroxycyclopentyl](methyl)amino}-8-oxo-5H,8H-pyrido[2,3-b]pyrazin-5-yl}acetamide], the IC50 in experiment [1] lay in the range of 5 to 50 nM. For the same compound, the EC50 in experiment [2] was below 500 nM.
